Laboratory results from PubChem BioAssay (NCI).
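In this assay, cells in 96-well plates receive the compound at five concentrations for 48 hours. Endpoints are linearly interpolated between the surrounding concentrations. GI50 is the concentration that inhibits growth by half. TGI marks complete inhibition of growth.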

Columns and labels:
Assay in all cases: NCI tumour cell line growth inhibition, 48 h
[1] = system: MOLT-4 leukemia
[2] = system: MDA-MB-231 breast
[3] = system: SR leukemia
[4] = system: HOP-62 NSCLC
[5] = system: UACC-257 melanoma
[6] = system: HS 578T breast
[7] = system: OVCAR-5 ovarian
[8] = system: SK-MEL-5 melanoma
[9] = system: SF-295 CNS
[10] = system: CCRF-CEM leukemia
[11] = system: SW-620 colon
[12] = system: HCC-2998 colon
[13] = system: PC-3 prostate
[14] = system: NCI-H522 lung
[15] = system: LOX IMVI melanoma
[16] = system: ACHN renal
[17] = system: KM12 colon
[18] = system: SF-539 CNS
[19] = system: COLO 205 colon
[20] = system: K-562 leukemia
[21] = system: 786-0 renal
[22] = system: A549 NSCLC
[23] = system: UACC-62 melanoma
[24] = system: DU-145 prostate
[25] = system: HT29 colon
[26] = system: NCI-H23 lung
[27] = system: OVCAR-3 ovarian
[28] = system: SN12C renal
[29] = system: T-47D breast
[30] = system: HCT-15 colon
[31] = system: SNB-19 CNS
[32] = system: MDA-MB-435
[33] = system: NCI-H460 lung
[34] = system: M14 melanoma
[35] = system: NCI/ADR-RES ovarian
[36] = system: HOP-92 NSCLC
[37] = system: MALME-3M melanoma
[38] = system: IGROV1 ovarian
[39] = system: OVCAR-8 ovarian
[40] = system: RPMI-8226 leukemia
[41] = system: CAKI-1 renal
[42] = system: MCF7 breast
[43] = system: OVCAR-4 ovarian
[44] = system: NCI-H226 lung
[45] = system: SNB-75 CNS
[46] = system: SK-OV-3 ovarian
[47] = system: RXF 393 renal
[48] = system: SK-MEL-2 melanoma
[49] = system: TK-10 renal
[50] = system: SK-MEL-28 melanoma
[51] = system: UO-31 renal
[52] = system: BT-549 breast
[53] = system: HCT-116 colon
[54] = system: HL-60(TB) leukemia
[55] = system: A498 renal
[56] = system: U251 CNS
[57] = system: SF-268 CNS
[58] = system: EKVX NSCLC

With COc1cc(Cn2c(-c3nonc3N)nc3ccccc32)ccc1C the GI50 [1] was 0.692 µM, the TGI [1] was greater than 100 µM and the GI50 [2] was 1.02 µM. The TGI [2] was 38.1 µM, the GI50 [3] was 0.516 µM and the TGI [3] was greater than 100 µM. It also gave a GI50 [4] of 0.568 µM, a TGI [4] of 21.3 µM and a GI50 [5] of 0.419 µM. It also gave a TGI [5] greater than 100 µM, a GI50 [6] of 0.326 µM and a TGI [6] of 24.4 µM. It also gave a GI50 [7] of 1.59 µM, a TGI [7] of 43.5 µM and a GI50 [8] of 0.354 µM. For the same compound, the TGI [8] was 19.8 µM, the GI50 [9] was 0.34 µM and the TGI [9] was 5.63 µM. It also gave a GI50 [10] of 0.403 µM, a TGI [10] greater than 100 µM and a GI50 [11] of 0.334 µM. The TGI [11] was greater than 100 µM, the GI50 [12] was 1.42 µM and the TGI [12] was greater than 100 µM. It also gave a GI50 [13] of 0.399 µM, a TGI [13] greater than 100 µM and a GI50 [14] of 0.243 µM. For the same compound, the TGI [14] was 0.735 µM, the GI50 [15] was 0.649 µM and the TGI [15] was greater than 100 µM. For the same compound, the GI50 [16] was 0.726 µM, the TGI [16] was greater than 93.8 µM and the GI50 [17] was 0.468 µM. It also gave a TGI [17] greater than 100 µM, a GI50 [18] of 0.226 µM and a TGI [18] of 0.663 µM. For the same compound, the GI50 [19] was 0.337 µM, the TGI [19] was 1.39 µM and the GI50 [20] was 0.375 µM. It also gave a TGI [20] greater than 100 µM, a GI50 [21] of 0.55 µM and a TGI [21] of 23.6 µM. It also gave a GI50 [22] of 0.625 µM, a TGI [22] greater than 100 µM and a GI50 [23] of 0.848 µM. It also gave a TGI [23] greater than 100 µM, a GI50 [24] of 0.605 µM and a TGI [24] greater than 37.8 µM. The GI50 [25] was 0.358 µM, the TGI [25] was 7.3 µM and the GI50 [26] was 1.02 µM. It also gave a TGI [26] greater than 55.6 µM, a GI50 [27] of 0.328 µM and a TGI [27] of 0.906 µM. For the same compound, the GI50 [28] was 3.69 µM, the TGI [28] was greater than 100 µM and the GI50 [29] was 0.574 µM. For the same compound, the TGI [29] was greater than 100 µM, the GI50 [30] was 0.427 µM and the TGI [30] was greater than 100 µM. It also gave a GI50 [31] of 0.626 µM, a TGI [31] of 45.5 µM and a GI50 [32] of 0.168 µM. The TGI [32] was 0.642 µM, the GI50 [33] was 0.377 µM and the TGI [33] was greater than 100 µM. The GI50 [34] was 0.426 µM, the TGI [34] was 34.8 µM and the GI50 [35] was 0.362 µM. The TGI [35] was greater than 37.4 µM, the GI50 [36] was 0.566 µM and the TGI [36] was 30 µM. For the same compound, the GI50 [37] was 0.526 µM, the TGI [37] was 72.7 µM and the GI50 [38] was 1.22 µM. It also gave a TGI [38] greater than 61.6 µM, a GI50 [39] of 0.729 µM and a TGI [39] greater than 100 µM. The GI50 [40] was 0.493 µM, the TGI [40] was greater than 100 µM and the GI50 [41] was 0.477 µM. For the same compound, the TGI [41] was greater than 100 µM, the GI50 [42] was 0.348 µM and the TGI [42] was greater than 100 µM. For the same compound, the GI50 [43] was 0.731 µM, the TGI [43] was greater than 95.2 µM and the GI50 [44] was 1.91 µM. The TGI [44] was greater than 100 µM, the GI50 [45] was 0.248 µM and the TGI [45] was 1.13 µM. For the same compound, the GI50 [46] was 0.493 µM, the TGI [46] was 32 µM and the GI50 [47] was 0.304 µM. The TGI [47] was 3.35 µM, the GI50 [48] was 0.417 µM and the TGI [48] was 9.97 µM. The GI50 [49] was 1.09 µM, the TGI [49] was 30 µM and the GI50 [50] was 2.91 µM. The TGI [50] was greater than 62.7 µM, the GI50 [51] was 0.58 µM and the TGI [51] was greater than 100 µM. For the same compound, the GI50 [52] was 0.463 µM, the TGI [52] was 49.4 µM and the GI50 [53] was 0.46 µM. For the same compound, the TGI [53] was greater than 100 µM, the GI50 [54] was 0.345 µM and the TGI [54] was 50.8 µM. The GI50 [55] was 0.142 µM, the TGI [55] was 1.66 µM and the GI50 [56] was 0.501 µM. For the same compound, the TGI [56] was 15.6 µM, the GI50 [57] was 0.825 µM and the TGI [57] was greater than 100 µM.

For NC(=O)c1ccc(C2C3=C(CCCC3=O)OC3=C2C(=O)c2ccccc2C3=O)cc1 (stereo not drawn), the GI50 [1] was 0.361 µM, the TGI [1] was 1.4 µM and the GI50 [2] was 0.323 µM. The TGI [2] was 1.54 µM, the GI50 [3] was 0.771 µM and the TGI [3] was 5.73 µM. For the same compound, the GI50 [4] was 1.35 µM, the TGI [4] was 2.72 µM and the GI50 [5] was 0.232 µM. It also gave a TGI [5] of 1.26 µM, a GI50 [6] of 1.13 µM and a TGI [6] of 5.49 µM. The GI50 [7] was 1.91 µM, the TGI [7] was 3.92 µM and the GI50 [8] was 0.493 µM. For the same compound, the TGI [8] was 1.73 µM, the GI50 [9] was 1.53 µM and the TGI [9] was 3.18 µM. For the same compound, the GI50 [10] was 0.35 µM, the TGI [10] was 2.21 µM and the GI50 [11] was 0.383 µM. The TGI [11] was 1.72 µM, the GI50 [12] was 2.06 µM and the TGI [12] was 4.29 µM. The GI50 [13] was 0.285 µM, the TGI [13] was 1.86 µM and the GI50 [14] was 0.307 µM. For the same compound, the TGI [14] was 0.757 µM, the GI50 [15] was 0.181 µM and the TGI [15] was 1.06 µM. For the same compound, the GI50 [16] was 1.14 µM, the TGI [16] was 2.41 µM and the GI50 [17] was 1.34 µM. The TGI [17] was 4.52 µM, the GI50 [18] was 0.307 µM and the TGI [18] was 1.03 µM. For the same compound, the GI50 [19] was 0.351 µM, the TGI [19] was 1.41 µM and the GI50 [20] was 0.391 µM. The TGI [20] was 1.96 µM, the GI50 [21] was 1.04 µM and the TGI [21] was 2.33 µM. For the same compound, the GI50 [22] was 2.28 µM, the TGI [22] was 4.66 µM and the GI50 [23] was 0.217 µM. It also gave a TGI [23] of 0.52 µM, a GI50 [24] of 0.465 µM and a TGI [24] of 1.59 µM. It also gave a GI50 [58] of 0.687 µM, a TGI [58] of 2.83 µM and a GI50 [25] of 1.77 µM. It also gave a TGI [25] of 5.58 µM, a GI50 [26] of 0.202 µM and a TGI [26] of 1.14 µM. It also gave a GI50 [27] of 0.276 µM, a TGI [27] of 0.852 µM and a GI50 [28] of 0.32 µM. The TGI [28] was 1.17 µM, the GI50 [29] was 0.272 µM and the TGI [29] was 0.968 µM. It also gave a GI50 [30] of 1.4 µM, a TGI [30] of 3.37 µM and a GI50 [31] of 1.38 µM. The TGI [31] was 2.87 µM, the GI50 [32] was 0.179 µM and the TGI [32] was 0.339 µM. For the same compound, the GI50 [33] was 0.458 µM, the TGI [33] was 2.05 µM and the GI50 [34] was 0.609 µM. It also gave a TGI [34] of 2.03 µM, a GI50 [35] of 2.94 µM and a TGI [35] of 22.5 µM. The GI50 [36] was 0.855 µM, the TGI [36] was 2.91 µM and the GI50 [37] was 0.332 µM. For the same compound, the TGI [37] was 0.986 µM, the GI50 [38] was 0.641 µM and the TGI [38] was 2.12 µM. The GI50 [40] was 0.521 µM, the TGI [40] was 2.63 µM and the GI50 [41] was 1.9 µM. It also gave a TGI [41] of 3.67 µM, a GI50 [42] of 0.233 µM and a TGI [42] of 0.824 µM. The GI50 [43] was 0.228 µM, the TGI [43] was 0.95 µM and the GI50 [44] was 1.89 µM. For the same compound, the TGI [44] was 3.96 µM, the GI50 [45] was 0.277 µM and the TGI [45] was 1.22 µM. It also gave a GI50 [46] of 2.12 µM, a TGI [46] of 4.11 µM and a GI50 [47] of 1.43 µM. The TGI [47] was 2.87 µM, the GI50 [48] was 0.576 µM and the TGI [48] was 2.06 µM. The GI50 [49] was 1.82 µM, the TGI [49] was 3.22 µM and the GI50 [50] was 1.33 µM. The TGI [50] was 2.87 µM, the GI50 [51] was 1.54 µM and the TGI [51] was 2.91 µM. The GI50 [52] was 0.642 µM, the TGI [52] was 2.03 µM and the GI50 [53] was 0.26 µM. It also gave a TGI [53] of 0.76 µM, a GI50 [54] of 0.239 µM and a TGI [54] of 0.538 µM. It also gave a GI50 [55] of 1.36 µM, a TGI [55] of 2.69 µM and a GI50 [56] of 0.358 µM. For the same compound, the TGI [56] was 1.22 µM, the GI50 [57] was 0.466 µM and the TGI [57] was 1.93 µM.
